Measurements published in article PMC9387934, “Randomized single oral dose phase 1 study of safety, tolerability, and pharmacokinetics of Iminosugar UV-4 Hydrochloride (UV-4B) in healthy subjects” (PLoS Neglected Tropical Diseases, 2022).
Where a name gives a salt, the structure may show the parent alone.

Columns and labels:
in vivo = experiment: in vivo; parameters: species or system AG129 mice; conditions: Crl:CD1(ICR), dose-adjusted PK data from the 25 mg/kg/day dose of the mouse 14-day study, read-out: Cmax at which relevant pharmacological activity is expected
Procedure: UV-4B was evaluated in four in vitro genetic toxicology assays (two Ames bacterial reverse mutation, mouse lymphoma assay, and chromosomal aberration in cultured human lymphocytes), and in an in vivo (mouse bone marrow micronucleus). UV-4B was not found to be mutagenic or clastogenic in any of these assays
2.2 Rationale for Dose Selection
This is a single-ascending dose study in which UV-4B will be administered for the first time in humans. The study will evaluate the safety, tolerability, and PK of increasing oral doses of […]
The results from this study will form the basis for the selection of doses of UV-4B to be used in future studies in healthy subjects and in patients diagnosed with uncomplicated DENV infection.
In the studies summarized below, the dose stated refers to the free-base used in vitro or administered during in vivo experiments.
The proposed doses for Cohorts 1 through 8 will range from 3 mg to 1000 mg of UV-4B (dose stated refers to the free base; see Table 2). […]
UV-4B, administered orally TID (intragastric via oral gavage) for a total number of 7 days (first dose administered 1 hour prior to infection) was effective in promoting survival of AG129 mice challenged with DENV. Of the doses evaluated (2.5, 5, 10, 20, and 40 mg/kg TID), the minimal effective dose (survival of 90% to 100%) was determined to be 10 mg/kg TID (UV4-LIA-0002). […]

all ten CYPs = tested on: all ten CYPs; parameters: method as in Investigator’s Brochure (IB); conditions: all ten CYPs at the tested conditions; ref Investigator’s Brochure (IB); cited from earlier work
[1] = parameters: method as in Investigator’s Brochure (IB); conditions: 50 mg/kg/day for 13 days; ref Investigator’s Brochure (IB); cited from earlier work

| SMILES | Cmax (in vivo) | Potential for metabolism-dependent inhibition (all ten CYPs) | Finding in rabbit offspring [1] |
| --- | --- | --- | --- |
| COCCCCCCCCCN1C[C@H](O)[C@@H](O)[C@H](O)[C@H]1CO [UV-4, N-(9’-methoxynonyl)-1-deoxynojirimycin] | 4000 to 8000 ng/mL | no significant potential | – |
| COCCCCCCCCCN1C[C@H](O)[C@@H](O)[C@H](O)[C@H]1CO [UV-4B, N-(9’-methoxynonyl)-1-deoxynojirimycin hydrochloride] | – | – | skeletal and visceral malformations |
